“And” between values parts separate entries of the source, which are not always exact repeats. Equal entries are not always repeated.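 In this assay, cells in 96-well plates receive the compound at five concentrations for 48 hours. Endpoints are linearly interpolated between the surrounding concentrations. GI50 = concentration required for 50% inhibition of growth. TGI denotes the concentration required for complete inhibition of growth.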
Tests used:
Assay in all cases: NCI-60 cell line screen, 48 h
A498 renal = tested on: A498 renal
HOP-62 NSCLC = tested on: HOP-62 NSCLC
LOX IMVI melanoma = tested on: LOX IMVI melanoma
M14 melanoma = tested on: M14 melanoma
NCI-H23 lung = tested on: NCI-H23 lung
NCI-H460 lung = tested on: NCI-H460 lung
NCI-H522 lung = tested on: NCI-H522 lung
OVCAR-4 ovarian = tested on: OVCAR-4 ovarian
OVCAR-8 ovarian = tested on: OVCAR-8 ovarian
SK-OV-3 ovarian = tested on: SK-OV-3 ovarian

Compound	GI50 (A498 renal)	TGI (A498 renal)	GI50 (HOP-62 NSCLC)	TGI (HOP-62 NSCLC) [µM]	GI50 (LOX IMVI melanoma) [µM]	TGI (LOX IMVI melanoma) [µM]	GI50 (M14 melanoma) [µM]	TGI (M14 melanoma) [µM]	GI50 (NCI-H23 lung) [µM]	TGI (NCI-H23 lung) [µM]	GI50 (NCI-H460 lung) [µM]	TGI (NCI-H460 lung) [µM]	GI50 (NCI-H522 lung)	TGI (NCI-H522 lung) [µM]	GI50 (OVCAR-4 ovarian) [µM]	TGI (OVCAR-4 ovarian) [µM]	GI50 (OVCAR-8 ovarian) [µM]	TGI (OVCAR-8 ovarian) [µM]	TGI (SK-OV-3 ovarian) [µM]	GI50 (SK-OV-3 ovarian) [µM]
COc1cc(Nc2ncc(F)c(Nc3ccc4c(n3)NC(=O)C(C)(C)O4)n2)cc(OC)c1OC	0.148 µM and 0.352 µM	0.547 µM and 2.15 µM	1.38 µM and 4.74 µM	> 100	1.57	> 10	> 100	> 100	6.29	> 10	> 100	> 100	1.94 µM and 1.43 µM	> 100	> 100	> 100	> 100	> 100	> 100	–
O=C(Nc1cccc(Cc2cccc(NC(=O)c3ccccc3)c2)c1)c1ccccc1	–	> 100 µM	–	60.9	–	> 100	–	> 100	–	> 100	–	> 100	–	> 100	–	39.8	–	> 100	62.5	–
NCCN.NCCN.O=C[O-].O=C[O-].[Co+3].[O-][Cl+3]([O-])([O-])[O-]	> 100 µM	> 100 µM	> 100 µM	> 100	> 100	> 100	> 100	> 100	> 100	> 100	> 100	> 100	> 100 µM	> 100	> 100	> 100	> 100	> 100	> 100	> 100
Fc1ccc(-c2ncn(C3CCNCC3)c2-c2ccnc(Oc3ccc(F)c(F)c3)n2)cc1	10.8 µM	> 25 µM	4.83 µM	9.56	4.29	9.14	4.8	8.97	> 17.8	> 25	5.42	13.1	5.52 µM	10.5	5.91	18.3	4.96	10.9	> 16.4	7.54
O=C(O)c1ccc(S(=O)(=O)Nc2ccc3oc4c(c3c2)C(=O)CCC4)cc1	> 100 µM	> 100 µM	> 100 µM	> 100	> 100	> 100	> 100	> 100	> 100	> 100	> 100	> 100	> 100 µM	> 100	> 100	> 100	> 100	> 100	> 100	> 100
O=S(=O)(SCc1ccccc1)C(c1ccccc1)c1ccccc1	–	> 100 µM	–	> 100	–	> 100	–	59.7	–	77.6	–	> 100	–	57.8	–	> 100	–	43.1	> 100	–
COc1cc2c3c(n(CCCNCCCNCCCNCCCN)c(=O)c2cc1OC)-c1cc2c(cc1C3=O)OCO2	3.14 µM	12.1 µM	3.01 µM	13	1.15	3.25	2.84	14.2	1.5	3.86	1.32	4.25	3.61 µM	> 100	4.34	58	2.19	10.8	> 100	8.52
CCN1C2=NCCN2S(=O)(=O)c2ccccc21	–	> 100 µM	–	> 100	–	> 100	–	> 100	–	> 100	–	> 100	–	> 100	–	> 100	–	> 100	> 100	–
Cc1[nH]c2ccccc2c1-c1cc(-c2cc(-c3c(C)[nH]c4ccccc34)nc(N)n2)nc(N)n1	–	> 100 µM	–	> 100	–	> 100	–	> 100	–	> 100	–	> 100	–	> 100	–	> 100	–	> 100	> 100	–
CN(CCc1ccccn1)c1nc(=[N+](C)C)ss1	–	> 100 µM	–	> 100	–	> 100	–	> 100	–	> 100	–	> 100	–	> 100	–	> 100	–	> 100	> 100	–
CN1C(=O)[C@@H](NC(=O)[C@H](CCC(F)(F)F)[C@H](CCC(F)(F)F)C(N)=O)N=C(c2ccccc2)c2ccccc21	47.7 µM	> 100 µM	> 100 µM	> 100	> 100	> 100	50.9	> 100	> 100	> 100	83.4	> 100	85.2 µM	> 100	86.8	> 100	> 100	> 100	> 100	> 100
CN(CC#N)C1CCCC[C@H]1O (some centres undefined)	–	> 100 µM	–	> 100	–	> 100	–	> 100	–	> 100	–	> 100	–	> 100	–	> 100	–	> 100	> 100	–
COc1ccc(N/N=C(\CCN(C)C)c2ccccc2)cc1	–	29.6 µM	–	9.77	–	7.74	–	24.2	–	19.7	–	10.8	–	30	–	17.1	–	27.2	9.74	–

Source: PubChem BioAssay (NCI)
